Calls of active or inactive are those of the source.
What was measured:
[1] = target: T1, Corticotropin-releasing factor receptor 2/Corticotropin-releasing factor-binding protein (Homo sapiens, UniProt P24387+Q13324); test: Dose Response confirmation of uHTS hits for small molecule antagonists of the CRF-binding protein and CRF-R2 receptor complex.; assay type: functional; settings: read-out: IC50_Mean
T1 sequence (Q13324 whole entry): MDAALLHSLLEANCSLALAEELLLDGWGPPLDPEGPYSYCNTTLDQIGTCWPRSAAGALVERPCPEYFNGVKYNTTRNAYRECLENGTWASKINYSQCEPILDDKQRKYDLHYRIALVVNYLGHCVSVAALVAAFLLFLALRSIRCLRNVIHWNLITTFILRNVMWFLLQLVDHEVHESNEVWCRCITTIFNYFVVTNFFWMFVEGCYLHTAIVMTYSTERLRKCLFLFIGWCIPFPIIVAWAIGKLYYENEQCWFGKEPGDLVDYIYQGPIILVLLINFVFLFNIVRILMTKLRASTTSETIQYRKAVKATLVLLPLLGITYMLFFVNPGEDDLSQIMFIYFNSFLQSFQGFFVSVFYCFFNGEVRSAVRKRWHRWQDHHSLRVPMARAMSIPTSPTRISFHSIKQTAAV
T1 sequence (P24387 whole entry): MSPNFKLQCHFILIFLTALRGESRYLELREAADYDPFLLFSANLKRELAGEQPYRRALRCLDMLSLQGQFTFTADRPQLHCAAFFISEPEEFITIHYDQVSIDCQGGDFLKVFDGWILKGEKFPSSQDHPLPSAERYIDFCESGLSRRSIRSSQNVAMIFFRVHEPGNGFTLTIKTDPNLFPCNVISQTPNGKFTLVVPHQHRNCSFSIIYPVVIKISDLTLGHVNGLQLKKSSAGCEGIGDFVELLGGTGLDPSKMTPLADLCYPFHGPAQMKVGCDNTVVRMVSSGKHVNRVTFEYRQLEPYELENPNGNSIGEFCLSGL

[2] = target: T1, Corticotropin-releasing factor receptor 2/Corticotropin-releasing factor-binding protein; test: activators of CRF receptor 2 with binding protein – uHTS hits, confirmation (AID 602473); assay type: functional; settings: read-out: EC50_Mean
[3] = blockers of CRF-binding protein–CRF-R2 complex – cell-based, uHTS hits, 384-well, dose response (AID 651639); assay type: functional, Homo sapiens; settings: read-out: IC50_Mean
[4] = target: T2, High affinity choline transporter 1 (Homo sapiens, UniProt Q9GZV3); test: human choline transporter blockers, potency – cell-based, 5-point CRC, membrane potential dye, dose response (AID 504840); assay type: functional
T2 sequence (Q9GZV3 whole entry): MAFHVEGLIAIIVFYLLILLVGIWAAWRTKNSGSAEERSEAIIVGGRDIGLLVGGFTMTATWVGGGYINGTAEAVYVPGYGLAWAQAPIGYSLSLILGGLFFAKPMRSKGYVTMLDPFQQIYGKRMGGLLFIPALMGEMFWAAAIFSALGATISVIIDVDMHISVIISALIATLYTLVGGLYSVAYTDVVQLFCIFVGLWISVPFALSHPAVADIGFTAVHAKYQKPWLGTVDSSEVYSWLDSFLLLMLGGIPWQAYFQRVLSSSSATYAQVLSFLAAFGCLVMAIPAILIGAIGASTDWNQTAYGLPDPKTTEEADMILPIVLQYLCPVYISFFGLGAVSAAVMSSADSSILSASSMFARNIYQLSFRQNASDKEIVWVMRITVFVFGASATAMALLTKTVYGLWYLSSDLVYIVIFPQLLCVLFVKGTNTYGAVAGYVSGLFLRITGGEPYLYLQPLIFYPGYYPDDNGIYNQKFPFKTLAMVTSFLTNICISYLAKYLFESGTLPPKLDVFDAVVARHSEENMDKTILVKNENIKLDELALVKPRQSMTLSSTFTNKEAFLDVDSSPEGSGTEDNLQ

[5] = target: T3, Histone-lysine N-methyltransferase NSD2 (Homo sapiens, UniProt O96028); assay type: biochemical
T3 sequence (O96028 whole entry): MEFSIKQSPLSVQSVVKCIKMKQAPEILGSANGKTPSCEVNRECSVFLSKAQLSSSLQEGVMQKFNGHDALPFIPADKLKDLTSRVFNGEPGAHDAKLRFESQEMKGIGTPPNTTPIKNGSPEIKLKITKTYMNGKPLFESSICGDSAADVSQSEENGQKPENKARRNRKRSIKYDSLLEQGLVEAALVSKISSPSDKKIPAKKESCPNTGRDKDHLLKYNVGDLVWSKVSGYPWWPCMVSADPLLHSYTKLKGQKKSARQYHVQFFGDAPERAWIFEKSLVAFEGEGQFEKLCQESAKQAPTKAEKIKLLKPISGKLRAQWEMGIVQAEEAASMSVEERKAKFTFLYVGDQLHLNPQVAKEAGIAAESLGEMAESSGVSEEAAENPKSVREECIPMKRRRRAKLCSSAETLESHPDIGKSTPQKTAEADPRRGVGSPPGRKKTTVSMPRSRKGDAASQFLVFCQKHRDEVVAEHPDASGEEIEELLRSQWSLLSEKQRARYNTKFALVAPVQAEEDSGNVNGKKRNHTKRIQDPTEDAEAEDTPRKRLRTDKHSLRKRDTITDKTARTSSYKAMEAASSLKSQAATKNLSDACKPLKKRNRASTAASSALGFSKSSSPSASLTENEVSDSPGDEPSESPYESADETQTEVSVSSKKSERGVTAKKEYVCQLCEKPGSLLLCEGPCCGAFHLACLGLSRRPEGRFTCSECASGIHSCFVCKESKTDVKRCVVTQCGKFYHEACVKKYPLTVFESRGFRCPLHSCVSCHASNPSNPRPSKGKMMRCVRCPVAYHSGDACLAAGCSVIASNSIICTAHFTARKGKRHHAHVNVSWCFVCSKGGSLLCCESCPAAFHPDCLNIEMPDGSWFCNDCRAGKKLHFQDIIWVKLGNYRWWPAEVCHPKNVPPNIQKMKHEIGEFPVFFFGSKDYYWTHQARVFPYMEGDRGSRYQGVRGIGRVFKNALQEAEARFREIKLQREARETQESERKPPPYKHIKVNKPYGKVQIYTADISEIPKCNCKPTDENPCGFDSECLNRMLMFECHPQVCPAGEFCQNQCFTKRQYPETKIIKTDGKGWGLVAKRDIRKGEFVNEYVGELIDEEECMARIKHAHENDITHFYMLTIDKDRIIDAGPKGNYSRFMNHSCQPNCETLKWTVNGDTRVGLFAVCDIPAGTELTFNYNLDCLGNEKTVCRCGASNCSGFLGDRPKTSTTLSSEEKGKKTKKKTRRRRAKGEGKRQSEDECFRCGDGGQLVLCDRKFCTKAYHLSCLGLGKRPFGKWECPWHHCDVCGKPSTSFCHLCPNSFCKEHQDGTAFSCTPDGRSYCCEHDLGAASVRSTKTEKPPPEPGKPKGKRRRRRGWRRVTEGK

[6] = target: T4, Carboxy-terminal domain RNA polymerase II polypeptide A small phosphatase 1 (Homo sapiens, UniProt Q9GZU7); test: CTDSP1 inhibitors, concentration-response, biochemical, absorbance readout, ultra-high-throughput screen actives (AID 540297); assay type: functional
T4 sequence (Q9GZU7 whole entry): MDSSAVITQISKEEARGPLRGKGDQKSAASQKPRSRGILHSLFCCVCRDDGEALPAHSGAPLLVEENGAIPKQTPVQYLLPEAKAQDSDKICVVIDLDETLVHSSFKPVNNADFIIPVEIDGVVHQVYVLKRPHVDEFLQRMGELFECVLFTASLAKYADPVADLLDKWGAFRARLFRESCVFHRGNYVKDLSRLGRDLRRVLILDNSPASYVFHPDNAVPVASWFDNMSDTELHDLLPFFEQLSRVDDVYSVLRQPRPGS

[7] = target: T5, Long-chain-fatty-acid--AMP ligase FadD28 (Mycobacterium tuberculosis, UniProt P9WQ59); test: Fluorescence polarization aasay to screen for inhibitors that compete for the binding of FadD28 to a bisubstrate Measured in Biochemical System Using Plate Reader - 2147-01_Inhibitor_Dose_CherryPick_Activity.; assay type: functional, Mycobacterium tuberculosis H37Rv
T5 sequence (P9WQ59 whole entry): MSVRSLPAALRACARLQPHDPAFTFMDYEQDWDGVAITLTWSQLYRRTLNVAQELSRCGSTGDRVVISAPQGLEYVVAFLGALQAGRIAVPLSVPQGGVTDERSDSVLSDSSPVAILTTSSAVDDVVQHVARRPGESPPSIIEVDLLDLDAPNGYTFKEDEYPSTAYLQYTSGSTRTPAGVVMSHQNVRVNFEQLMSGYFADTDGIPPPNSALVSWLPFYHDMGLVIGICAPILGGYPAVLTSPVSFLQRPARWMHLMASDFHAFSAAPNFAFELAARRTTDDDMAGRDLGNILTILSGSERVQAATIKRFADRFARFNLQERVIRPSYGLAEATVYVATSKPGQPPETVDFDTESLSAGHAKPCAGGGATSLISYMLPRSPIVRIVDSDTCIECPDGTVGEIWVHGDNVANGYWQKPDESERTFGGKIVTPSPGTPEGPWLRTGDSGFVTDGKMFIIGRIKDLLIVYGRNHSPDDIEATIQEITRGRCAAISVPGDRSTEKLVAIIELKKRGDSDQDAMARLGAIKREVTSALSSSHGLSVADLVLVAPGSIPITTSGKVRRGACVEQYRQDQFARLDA

[8] = target: Eukaryotic translation initiation factor 4E (Mus musculus, UniProt P63073); test: blockers of eIF4G binding by eIF4E – biochemical, TR-FRET, dose response (AID 855); assay type: functional;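 note: potency for disrupting eIF4E binding to eIF4GI seen as loss of FRET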
[9] = target: Ras and Rab interactor 1/Tyrosine-protein kinase ABL1 (Homo sapiens, UniProt P00519+Q13671); assay type: functional;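 note: biochemical TR-FRET dose-response test measuring inhibition of binding between Rin1 and Abl proteins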
[10] = target: FAD-linked sulfhydryl oxidase ALR (Homo sapiens, UniProt P55789); test: ALR-catalysed DTT oxidation blockers – biochemical, H2O2 detection, luminescence, cherry-pick, dose response (AID 493248)
[11] = system: Streptococcus sp. 'group A'; test: Streptococcus pyogenes SK(-)GAS viability under kanamycin – luminescence, BacTiterGlo, confirmation, counter-screen for streptokinase expression inhibitor project, dose response (AID 1900); assay type: functional, organism-based
Streptococcus = test: GAS UMAA2166 growth inhibition – luminescence, BacTiterGlo, counter-screen for streptokinase expression inhibitor project, dose response (AID 1915); assay type: functional, organism-based;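 note: potency for reduction of bacterial viability or growth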
Streptokinase A = target: T6, Streptokinase A (Streptococcus pyogenes serotype M1, UniProt P10520); test: viability-normalized secreted streptokinase activity reduction – plasminogen activation absorbance, OD405, dose response (AID 1914); assay type: functional, Streptococcus pyogenes M1 GAS;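 note: secreted streptokinase activity via plasminogen activation per viability signal from cell pellet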
T6 sequence (P10520 whole entry): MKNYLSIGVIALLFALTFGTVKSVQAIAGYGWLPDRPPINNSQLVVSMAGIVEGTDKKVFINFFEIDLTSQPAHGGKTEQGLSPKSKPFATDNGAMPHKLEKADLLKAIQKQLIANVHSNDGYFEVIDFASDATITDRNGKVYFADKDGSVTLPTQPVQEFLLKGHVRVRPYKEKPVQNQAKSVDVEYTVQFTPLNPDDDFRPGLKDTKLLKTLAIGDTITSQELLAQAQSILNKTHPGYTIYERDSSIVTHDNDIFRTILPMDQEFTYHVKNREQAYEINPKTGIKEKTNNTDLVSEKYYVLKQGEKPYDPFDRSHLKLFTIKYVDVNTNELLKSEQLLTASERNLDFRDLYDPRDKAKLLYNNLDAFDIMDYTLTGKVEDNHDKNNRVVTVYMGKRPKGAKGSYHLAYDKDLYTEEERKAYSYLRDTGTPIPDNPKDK

[12] = target: T7, Sentrin-specific protease 8 (Homo sapiens, UniProt Q96LD8); assay type: functional
T7 sequence (Q96LD8 whole entry): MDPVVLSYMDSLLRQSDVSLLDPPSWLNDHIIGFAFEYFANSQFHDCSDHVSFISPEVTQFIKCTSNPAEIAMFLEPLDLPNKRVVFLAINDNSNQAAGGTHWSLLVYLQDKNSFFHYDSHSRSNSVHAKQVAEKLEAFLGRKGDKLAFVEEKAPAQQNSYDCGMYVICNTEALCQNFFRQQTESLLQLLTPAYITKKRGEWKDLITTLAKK

[13] = target: T7, Sentrin-specific protease 8; assay type: functional; remark: listed apart in the source
Genome polyprotein = Genome polyprotein (dengue virus type 2, UniProt P29990); test: flavivirus cap methylation enzyme inhibition – biochemical, confirmation dose response, primary screen (AID 588689); assay type: functional
Genome polyprotein, sequence (P29990 2492-3391 limits assumed): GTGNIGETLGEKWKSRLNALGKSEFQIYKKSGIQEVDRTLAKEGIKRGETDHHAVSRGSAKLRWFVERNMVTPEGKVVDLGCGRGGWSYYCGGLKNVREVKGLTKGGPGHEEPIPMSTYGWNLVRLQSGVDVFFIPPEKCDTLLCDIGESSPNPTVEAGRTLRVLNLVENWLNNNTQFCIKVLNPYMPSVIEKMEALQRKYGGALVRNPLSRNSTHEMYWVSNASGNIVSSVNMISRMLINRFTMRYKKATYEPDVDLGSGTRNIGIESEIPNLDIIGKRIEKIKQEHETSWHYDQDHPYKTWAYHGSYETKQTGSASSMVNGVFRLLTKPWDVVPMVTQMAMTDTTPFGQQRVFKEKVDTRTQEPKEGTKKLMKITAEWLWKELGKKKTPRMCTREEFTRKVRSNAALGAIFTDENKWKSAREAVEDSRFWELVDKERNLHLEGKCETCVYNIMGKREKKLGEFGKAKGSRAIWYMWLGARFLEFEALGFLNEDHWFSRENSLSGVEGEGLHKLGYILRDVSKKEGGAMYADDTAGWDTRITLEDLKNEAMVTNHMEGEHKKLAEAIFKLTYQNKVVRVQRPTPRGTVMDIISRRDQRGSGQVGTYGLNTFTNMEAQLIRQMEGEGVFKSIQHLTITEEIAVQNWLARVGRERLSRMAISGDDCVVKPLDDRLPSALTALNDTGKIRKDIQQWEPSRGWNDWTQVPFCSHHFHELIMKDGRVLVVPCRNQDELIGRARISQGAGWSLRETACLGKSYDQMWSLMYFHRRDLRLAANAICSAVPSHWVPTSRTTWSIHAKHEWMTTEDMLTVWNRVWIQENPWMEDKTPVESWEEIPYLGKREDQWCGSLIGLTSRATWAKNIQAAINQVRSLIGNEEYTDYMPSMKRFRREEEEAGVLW

Ras and Rab interactor 1/Tyrosine-protein kinase ABL1, sequence (P00519 whole entry): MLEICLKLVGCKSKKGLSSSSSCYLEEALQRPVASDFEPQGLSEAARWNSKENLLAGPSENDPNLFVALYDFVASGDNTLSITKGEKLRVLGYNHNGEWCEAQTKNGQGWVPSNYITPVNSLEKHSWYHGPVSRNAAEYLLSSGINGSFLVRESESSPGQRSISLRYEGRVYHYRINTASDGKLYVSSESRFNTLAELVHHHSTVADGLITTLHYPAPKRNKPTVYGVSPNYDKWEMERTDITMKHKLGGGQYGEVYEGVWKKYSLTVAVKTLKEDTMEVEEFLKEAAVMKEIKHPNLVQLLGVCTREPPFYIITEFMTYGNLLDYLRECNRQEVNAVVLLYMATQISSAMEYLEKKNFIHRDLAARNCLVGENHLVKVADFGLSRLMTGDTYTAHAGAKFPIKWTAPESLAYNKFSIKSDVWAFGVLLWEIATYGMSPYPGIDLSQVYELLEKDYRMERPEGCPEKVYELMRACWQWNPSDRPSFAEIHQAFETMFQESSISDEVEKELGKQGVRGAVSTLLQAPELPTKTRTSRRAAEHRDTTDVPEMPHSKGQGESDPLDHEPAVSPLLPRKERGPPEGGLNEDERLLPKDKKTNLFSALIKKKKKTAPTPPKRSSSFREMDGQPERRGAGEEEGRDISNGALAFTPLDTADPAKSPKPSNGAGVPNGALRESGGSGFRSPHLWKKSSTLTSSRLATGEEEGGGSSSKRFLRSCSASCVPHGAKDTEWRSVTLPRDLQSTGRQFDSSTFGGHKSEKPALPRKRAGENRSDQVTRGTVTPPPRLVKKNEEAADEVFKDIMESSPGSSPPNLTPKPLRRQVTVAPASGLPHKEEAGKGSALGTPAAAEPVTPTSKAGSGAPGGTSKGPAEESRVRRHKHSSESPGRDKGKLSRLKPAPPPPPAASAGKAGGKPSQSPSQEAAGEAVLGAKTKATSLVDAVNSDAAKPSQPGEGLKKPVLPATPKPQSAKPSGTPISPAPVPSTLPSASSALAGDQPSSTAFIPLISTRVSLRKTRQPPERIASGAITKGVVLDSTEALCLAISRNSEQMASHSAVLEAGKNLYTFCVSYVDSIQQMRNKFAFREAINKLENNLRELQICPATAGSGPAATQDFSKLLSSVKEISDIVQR
Ras and Rab interactor 1/Tyrosine-protein kinase ABL1, sequence (Q13671 whole entry): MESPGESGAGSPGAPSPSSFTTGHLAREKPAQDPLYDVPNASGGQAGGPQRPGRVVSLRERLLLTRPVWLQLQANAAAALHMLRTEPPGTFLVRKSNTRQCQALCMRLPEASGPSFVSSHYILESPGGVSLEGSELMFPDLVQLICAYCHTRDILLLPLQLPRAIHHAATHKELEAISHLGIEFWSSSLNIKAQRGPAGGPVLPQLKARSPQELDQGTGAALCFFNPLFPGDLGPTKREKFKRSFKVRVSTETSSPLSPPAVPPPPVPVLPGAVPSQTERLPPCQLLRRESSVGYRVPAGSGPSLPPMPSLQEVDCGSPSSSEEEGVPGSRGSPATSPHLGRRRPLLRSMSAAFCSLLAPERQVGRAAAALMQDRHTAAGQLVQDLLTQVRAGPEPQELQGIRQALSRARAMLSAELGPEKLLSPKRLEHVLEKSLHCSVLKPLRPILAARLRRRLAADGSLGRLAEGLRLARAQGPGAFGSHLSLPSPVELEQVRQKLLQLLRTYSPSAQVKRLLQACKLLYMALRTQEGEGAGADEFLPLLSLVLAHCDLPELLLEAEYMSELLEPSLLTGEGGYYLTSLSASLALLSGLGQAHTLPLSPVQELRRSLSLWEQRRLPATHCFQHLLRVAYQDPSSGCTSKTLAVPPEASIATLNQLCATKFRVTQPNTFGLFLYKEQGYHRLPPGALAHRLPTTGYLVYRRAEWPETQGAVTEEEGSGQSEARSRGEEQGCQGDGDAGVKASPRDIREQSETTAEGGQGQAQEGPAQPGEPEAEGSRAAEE
Eukaryotic translation initiation factor 4E, sequence (P63073 whole entry): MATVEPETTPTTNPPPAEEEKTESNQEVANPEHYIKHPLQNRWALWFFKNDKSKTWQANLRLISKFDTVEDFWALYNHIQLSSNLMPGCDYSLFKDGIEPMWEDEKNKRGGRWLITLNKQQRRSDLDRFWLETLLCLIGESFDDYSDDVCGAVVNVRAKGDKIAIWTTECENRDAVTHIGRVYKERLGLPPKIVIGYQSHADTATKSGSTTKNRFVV
FAD-linked sulfhydryl oxidase ALR, sequence (P55789 whole entry): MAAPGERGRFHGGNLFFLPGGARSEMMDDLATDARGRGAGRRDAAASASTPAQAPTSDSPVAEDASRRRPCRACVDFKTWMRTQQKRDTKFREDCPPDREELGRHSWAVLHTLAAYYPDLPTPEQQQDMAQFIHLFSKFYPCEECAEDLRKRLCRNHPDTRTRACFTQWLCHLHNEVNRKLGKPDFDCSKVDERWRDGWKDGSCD

Structure (SMILES): COc1ccc(Oc2ccc(C(F)(F)F)cc2NC(=O)c2ccc(OC)cc2)cc1
- IC50 [1]: < 0.368 µM (active)
- EC50 [2]: > 53 µM (inactive)
- IC50 [3]: 7.95 µM (active)

Structure (SMILES): Cc1ccc(NC(=O)c2ccc(CN3CC(=O)N4CCCCC4C3=O)cc2)c(C)c1 (stereo not given)
- IC50 [4]: 4.47 µM (active)

Structure (SMILES): Cc1ccc(NC(=O)CN2C(=O)N/C(=C/c3cc(C)n(-c4cccc(C(=O)O)c4)c3C)C2=O)cc1
- AC50 [5]: > 20 µM (inactive)
- IC50 [6]: 7.94 µM (active)
- AC50 [7]: 27.5 µM (active)
- IC50 [8]: 50 µM (inactive)

Structure (SMILES): CC(C)c1ccc(NC(=O)CSc2nnc(CN3CCOCC3)n2C)cc1
- IC50 [9]: 14.2 µM (inactive)

Structure (SMILES): Oc1cc2ccccc2cc1-c1nnc(S)o1
- AC50 [10]: 0.301 µM (active)
- EC50 [11]: 10.3 µM (active)
- IC50 [1]: 10.5 µM (active)
- EC50 (Streptococcus): > 150 µM (not active)
- EC50 (Streptokinase A): 23.5 µM (active)
- EC50 [2]: > 53 µM (inactive)
- IC50 [3]: 13.4 µM (active)

Structure (SMILES): CC(C)N1C(=O)CCC1C(=O)N1CCCc2ccccc21 (stereo not given)
- IC50 [12]: 9.12 µM (active)
- IC50 [13]: > 100 µM (inactive)

Structure (SMILES): COc1cccc(/C=C2\SC(=S)N(NC(=O)c3ccncc3)C2=O)c1
- IC50 [4]: 12.6 µM (active)

Structure (SMILES): Cc1ccc(C(=O)OCC(=O)Nc2ccc3c(c2)OCO3)cc1S(=O)(=O)N1CCOCC1
- AC50 [7]: > 100 µM (inactive)

Structure (SMILES): C=CCNc1ncnc2c1ncn2[C@H]1CN(Cc2ccc(-c3ccccc3)cc2)C[C@@H](CO)O1
- IC50 [9]: 24.2 µM (inactive)

Structure (SMILES): O=c1c(Sc2ccccc2)c(C(F)(F)F)[nH]n1-c1ccccc1
- IC50 (Genome polyprotein): 59.5 µM (active)
- IC50 [1]: 22.3 µM (active)
- EC50 [2]: > 53 µM (inactive)
- IC50 [3]: > 20 µM (inactive)

— ChEMBL document CHEMBL1201862, “PubChem BioAssay data set” (2004)
